The values that follow come from patent US20220387466A1, “COMPOUNDS AND PHARMACEUTICAL COMPOSITIONS FOR PREVENTION AND/OR TREATMENT OF DYSBIOSIS AND ANTIBACTERIAL ANTIDOTES FOR MICROBIOME-PROTECTION” (priority 2019, published 2022).

Assay [1] concerns B. uniformis. In words: Prestwick library screen for microbiome-protective antibiotic antagonists (growth AUC z-scores). The conditions noted are these: z-score of normalized growth AUC, two replicates. It counts as cell-based, Bacteroides uniformis. The source says: The inventors reasoned that it should be possible to identify drugs that selectively antagonize the effect of antibiotics on gut microbes, while retaining activity against pathogens. Therefore, the inventors screened the Prestwick library to identify antagonizing compounds to erythromycin or doxycycline on two abundant and prevalent gut microbes, B. vulgatus and B. uniformis.
Preparation of screening plates. The Prestwick Chemical Library was purchased from Prestwick Chemical Inc. and drugs were re-arrayed, diluted and stored in 96 well format as described before. The inventors prepared drug plates (2×drug concentration) in MGAM medium and stored them at −30° C. For each experiment, drug plates were thawed, supplemented with the respective antibiotic solution (freshly prepared in MGAM) and pre-reduced in the anaerobic chamber overnight. All rearranging and aliquoting steps were done using the Biomek FXP (Beckman Coulter) system.
Inoculation and screening conditions. Strains were grown twice overnight, the second overnight culture was diluted in MGAM to reach OD578 nm 0.04 (4×the desired starting OD). 25 μl of the diluted cultures were used to inoculate wells containing 50 μl of 2× concentrated Prestwick drug and 25 μl of the 4× concentrated antibiotic using the semi-automated, 96-well multi-channel pipette epMotion 96 (Eppendorf). Each well contained 1% DMSO, 20 μM of the Prestwick drug and a species-specific antibiotic concentration that was just inhibitory for the respective strain (0.625 μM for erythromycin, 0.04 μM doxycycline for B. uniformis and 0.08 μM doxycycline for B. vulgatus). Plates were sealed with breathable membranes (Breathe-Easy®) and OD578 was measured hourly after 30 sec of linear shaking with a microplate spectrophotometer (EON, Biotek) and an automated microplate stacker (Biostack 4, Biotek) fitted inside a custom-made incubator (EMBL Mechanical Workshop). Growth curves were collected up to 24 h. For each antibiotic, each species was screen in biological duplicates. All experiments included control wells of unperturbed growth (32 wells per run) and control wells for growth in the presence of the antibiotic only (8 wells per plate).
Analysis pipeline and hit calling: All growth curves within a plate were truncated at the transition time from exponential to stationary phase and converted to normalized AUCs using in-run control wells (no drug) as described before. The inventors then calculated z-scores based on these normalized AUCs, removed replicates with 8-fold differences in z-scores to eliminate noise effects, computed mean z scores across the two replicates and selected combinations with mean z-scores >3. This selection included 19 potential antibiotic antagonists and the inventors followed up on 14 of them (7 potential erythromycin and 7 potential doxycycline antagonists in either B. vulgatus or B. uniformis—see FIG. 4) in independent experiments.

For assay [2], the system named is B. uniformis. In words: Validation of microbiome-protective antagonists (concentration-dependent growth rescue). Format: cell-based, Bacteroides uniformis. The following applies: antagonist gradient, normalized AUC >0.25 = growth rescue. On the procedure:
(§1) Validation of microbiome-protective antagonists: In a first step, the inventors kept the erythromycin/doxycycline concentration constant (0.625 μM for erythromycin, 0.078 μM (B. vulgates)/0.039 μM (B. uniformis) for doxycycline) and tested concentration gradients of the potential antagonists with ranges depending on the antagonist's solubility. Compounds were purchased from independent vendors and dissolved at 100× starting concentration in DMSO. Eight 2-fold serial dilutions were prepared in 96-well plates with each row containing a different antagonist, sufficient control DMSO wells and wells with just the respective antibiotic (‘antibiotic-only’ control). These master plates were diluted in MGAM medium (50 μl) to 2×assay concentration and 25 μl freshly prepared antibiotic solution (4× test concentration) was added. Plates were pre-reduced overnight in an anaerobic chamber and inoculated with 25 μl of overnight cultures (prepared as described under “Growth conditions”) to reach a starting OD578 of 0.01 and 1% DMSO concentration. Growth was monitored hourly for 24 h after 30 sec of linear shaking. Experiments were performed in biological triplicates. For analysis, growth curves were converted into normalized AUCs (see above). The inventors accounted for residual growth in the presence of the antibiotic by subtracting the median normalized AUCs of the ‘antibiotic-only’ control per plate.

Another assay concerns E. faecium. In words: Antidote with macrolide on enterococci (Example 6). It counts as cell-based.
Assay [3] relates to species of the order Bacteroidales. As to the kind of experiment: Antidote vs azithromycin across seven gut Bacteroidales (Example 4). The conditions noted are these: combination with azithromycin. Format: cell-based. On the procedure:
The antidotes dicumarol (first column), benzbromarone (second column) and tolfenamic acid (third column) were tested for their efficacy in antagonizing the macrolide antibiotic azithromycin across seven prevalent and abundant gut Bacteroidales (B. vulgatus, B. fragilis NT, B. thetaiotaomicron, P. copri, B. caccae, B. ovatus, P. distasonis). […] All drug concentrations are in μM.
In particular, they aimed at testing, whether these antidotes can also protect from other macrolides such as azithromycin, a clinically more relevant antibiotic.

Assay [4] concerns seven-member synthetic community including the pathogen E. faecalis. As to the kind of experiment: E. faecalis-containing synthetic community, community growth AUC (Example 7). Format: cell-based. The text has this: (§2) Heat maps show median area under the growth curve (AUC) of the seven-member synthetic community including the pathogen E. faecalis. The numbers within the heat map represent the total number of all E. faecalis viable cells for each erythromycin-antidote combination as determined by enumerating of E. faecalis colony forming units after plating on selective medium. All drug concentrations are in μM. n. d.=not detectable.
(§3) The inventors exposed synthetic communities that contained the intestinal gut pathogen E. faecalis to erythromycin, and evaluated rescue of gut commensals and simultaneous killing of the pathogen in the presence of antidotes.

In assay [5] the test system is E. faecalis. In words: E. faecalis-containing synthetic community, E. faecalis CFU on selective medium (Example 7). It counts as cell-based, Enterococcus faecalis.
Source text: as §2, §3

In assay [6] the test system is E. faecalis. In words: Antidote with macrolide on enterococci (Example 6). It counts as cell-based, Enterococcus faecalis. The text has this:
Heat maps show median area under the growth curve (AUC) of three biologically independent replicates. […] All drug concentrations are in μM.
Here, the inventors expanded testing towards additional antidotes, and included the intestinal human pathogen Enterococcus faecalis.

Assay [7] concerns B. vulgatus. As to the kind of experiment: 8x8 checkerboard assay for anaerobic commensals (antibiotic vs antagonist). Format: cell-based, Bacteroides vulgatus. The source says:
Checkerboard assays for anaerobic commensals: Validated antagonists were further investigated in 8×8 checkerboard assays, where both antibiotics and antagonists were titrated against each other. Such assays were first performed for the commensals that were originally screened (i. e. B. vulgatus and B. uniformis—4 replicates) and later expanded towards 6 further gut microbes (B. caccae, B. fragilis NT, B. ovatus, B. thetaiotaomicron, P. copri, P. distasonis—2 replicates). For vertical gradients, 2-fold serial dilutions of the antagonists were prepared first in 100× in DMSO and diluted in MGAM as described above (section ‘Validation of microbiome-protective antagonists’). Horizontal antibiotic dilution series were freshly prepared in MGAM at 4× final concentration in equidistant concentration steps. Both, vertical and horizontal dilution series were combined (50 μl of the antagonist gradients (2×) and 25 μl of the antibiotic gradients (4×)) in 96 well plates. Plates were pre-reduced under anaerobic conditions overnight, inoculated with 25 μl of diluted overnight culture (at 4× starting OD) and sealed with breathable membrane (Breathe-Easy®). Bacterial growth was monitored once per hour for 24 hours after 30 sec linear shaking (Eon+Biostack 4, Biotek) under anaerobic conditions. Growth curves were converted into normalized AUCs as described using in-plate controls to define unperturbed growth.

Assay [8] has as its system synthetic gut commensal community of seven human gut commensals. As to the kind of experiment: Synthetic gut commensal community growth with macrolide and antidote (Example 5). Format: cell-based. The conditions noted are these: erythromycin and azithromycin. The text has this:
Heat maps depict area under the growth curve (AUC) of a synthetic community consisting of seven human gut commensals. Shown is the median AUC of three individual replicates. All drug concentrations are in μM.
So far, antidote effects have only been analyzed in single or pure cultures. However, the human gut microbiome is a complex community of many different bacterial taxa that is usually not adequately mimicked in monocultures.

Assay [9] has as its system B. vulgatus. In words: Prestwick library screen for microbiome-protective antibiotic antagonists (growth AUC z-scores). It counts as cell-based, Bacteroides vulgatus. The conditions noted are these: Doxycycline 0.08 μM + 20 μM drug, z-score of normalized growth AUC, two replicates.
Assay [10] has as its system B. vulgatus. As to the kind of experiment: Validation of microbiome-protective antagonists (concentration-dependent growth rescue). Format: cell-based, Bacteroides vulgatus. The following applies: Doxycycline 0.078 μM constant, antagonist gradient, normalized AUC >0.25 = growth rescue. On the procedure: as §1
Where [11] appears, read: Doxycycline 0.04 μM + 20 μM drug.
Setting [12] is: erythromycin 1.15 μM + 40 μM dicumarol or 20 μM benzbromarone.
Where [13] appears, read: Erythromycin 0.625 μM + 20 μM drug.

Structures can show the parent of a compound that is named as a salt.

For the compound `O=C(O)Cc1cc(I)c(Oc2ccc(O)c(I)c2)c(I)c1` [3,3′,5-triiodothyroacetic acid], in the assay on B. uniformis [1] (setting [11]), the Mean z-score is 4.333. In addition, the Validation entry in the assay on B. uniformis [2] (Doxycycline 0.039 μM constant) is given as “TRUE”.
Take `CCc1oc2ccccc2c1C(=O)c1cc(Br)c(O)c(Br)c1` [Benzbromarone]: in the assay on E. faecium, the “interaction with antibacterial effects of erythromycin/azithromycin” value is on record as “synergized” and the “rescue from erythromycin or azithromycin treatment” value is reported as “Neither dicumarol nor benzbromarone or tolfenamic acid could rescue”. Besides, the “protection of Bacteroidales species from azithromycin” value in assay [3] was “can be Protected”. Moreover, the “community growth (AUC)” value in [4] (setting [12]) is given as “the community is rescued”. Besides, the “rescue of the community despite erythromycin treatment” value in [4] (erythromycin + antidote) was “rescue of the community”. Besides, the Mean z-score in the assay on B. uniformis [1] (setting [13]) worked out at 6.034. Besides, the E. faecalis counts result in the assay on E. faecalis [5] (setting [12]) is on record as “drop/are still found at below the detection limit”. Further, in the assay with E. faecalis [5] (erythromycin + antidote), the “E. faecalis cells in community under erythromycin + antidote” value is reported as “efficiently inhibited”. Besides, the Validation entry with B. uniformis [2] (Erythromycin 0.625 μM constant) is recorded as “FALSE”. Moreover, in the assay on E. faecalis [6], the “interaction with antibacterial effects of erythromycin/azithromycin” value is given as “synergized” and the “rescue from erythromycin or azithromycin treatment” value was “Neither dicumarol nor benzbromarone or tolfenamic acid could rescue”. Further, the “rescue of B. vulgatus growth from erythromycin” value in the assay with B. vulgatus [7] (combination with erythromycin) is reported as “can rescue the growth”. Besides, the “protection (growth rescue) of synthetic gut commensal community from macrolide antibiotics” value in assay [8] is “can be Protected”.
As to `Cc1ccc(-c2cc(C(F)(F)F)nn2-c2ccc(S(N)(=O)=O)cc2)cc1` [Celecoxib], the Mean z-score in the assay on B. uniformis [1] (setting [11]) turned out to be 3.275.
As to `N#CC(c1ccc(Cl)cc1)c1c(Cl)cc(-n2ncc(=O)[nH]c2=O)cc1Cl` (stereo not shown) [Diclazuril], in the assay on B. vulgatus [9], the Mean z-score was 3.117.
With `CC/C(=C(/CC)c1ccc(O)cc1)c1ccc(O)cc1` [Diethylstilbestrol], the Mean z-score in the assay on B. vulgatus [9] was 3.296; in the assay with B. uniformis [1] (setting [13]), 9.258. Further, the Validation result with B. uniformis [2] (Erythromycin 0.625 μM constant) is “TRUE”.
Consider `O=C(O)c1cc(-c2ccc(F)cc2F)ccc1O` [Diflunisal], for which the Validation result with B. vulgatus [10] was “TRUE”. Also, in the assay on B. vulgatus [9], the Mean z-score is given as 3.265. The “rescue of B. vulgatus growth from doxycycline” value in the assay with B. vulgatus [7] (combination with doxycycline) was “rescued”.
With `O=C1Nc2ccc(Cl)cc2[C@@](C#CC2CC2)(C(F)(F)F)O1` [Efavirenz], in the assay on B. vulgatus [9], the Mean z-score amounted to 3.138.
For `CC(C)c1c(CN(C)C(C)Cc2ccccc2)n(C)n(-c2ccccc2)c1=O` (stereo not shown) [Famprofazone], the Mean z-score in the assay with B. uniformis [1] (setting [13]) is recorded as 7.832. Moreover, the Validation entry with B. uniformis [2] (Erythromycin 0.625 μM constant) is “FALSE”.
Taken in the same sequence, the figures for `CC[C@H](c1ccc(O)cc1)[C@@H](CC)c1ccc(O)cc1` [Hexestrol] were 9.630 and “TRUE”.
`CCC(Cc1c(I)cc(I)c(N)c1I)C(=O)O` (stereo not shown) [Iopanoic acid]: in the assay on B. vulgatus [10], the Validation result is on record as “TRUE”. Besides, the Mean z-score with B. vulgatus [9] is 5.698.
On to `CCCCCN(CCCCC)C(=O)C(CCC(=O)O)NC(=O)c1ccc(Cl)c(Cl)c1` (stereo not shown) [Lorglumide sodium salt], for which, in the assay on B. uniformis [1] (setting [13]), the Mean z-score is 6.106. In addition, in the assay on B. uniformis [2] (Erythromycin 0.625 μM constant), the Validation entry is recorded as “TRUE”.
For the compound `CCCCc1nc(Cl)c(CO)n1Cc1ccc(-c2ccccc2-c2nn[nH]n2)cc1` [Losartan], the Mean z-score in the assay on B. uniformis [1] (setting [11]) is 3.421. Moreover, in the assay on B. uniformis [2] (Doxycycline 0.039 μM constant), the Validation entry was “FALSE”.
As to `Cc1ccc(Cl)c(Nc2ccccc2C(=O)O)c1Cl` [Meclofenamic acid sodium salt monohydrate], in the assay on B. vulgatus [9], the Mean z-score turned out to be 3.010.
Regarding `Oc1cc(Cl)ccc1Oc1ccc(Cl)cc1Cl` [Triclosan], in the assay with B. uniformis [1] (setting [11]), the Mean z-score is on record as 3.066. In the assay on B. uniformis [2] (Doxycycline 0.039 μM constant), the Validation result is reported as “FALSE”.
